Data set [1] in a line: Peptide stability in simulated intestinal fluid (SIF). The data set is classed as in vitro ADME. The settings on record: Table 3-2, porcine pancreatin, pH 6.8, 37° C., 10 μM; for remaining at 4 h, 10 μM: read-out: SIF (% remaining 4 h). On the procedure: Determination of Peptide Stability in Simulated Gastric Fluid (SGF) and Simulated Intestinal Fluid (SIF)
SGF was prepared by dissolving sodium chloride (0.2 g) in 50 mL of water. A volume of 0.7 mL of 10 M HCl was added to adjust the pH of the solution to 1.2 and the volume made up to 100 mL with water. […] SIF was prepared by dissolving monobasic potassium phosphate (0.68 g) in 50 mL of water and adjusting the pH to 6.8 with 1 M NaOH. The volume was subsequently made up to 100 mL with water. 200 mg porcine pancreatin (P1625, Sigma Aldrich) was gently dissolved into 20 mL preheated (37° C.) solution (10 g/L) immediately prior to the incubation.
The incubation was performed at 37° C. with gentle shaking. […] After the last timepoint, the sampling plate was mixed for 10 min on a shaking table and centrifuged 10 min at 2200 g. 70 μL resulting supernatant was diluted with 150 μL water, mixed and centrifugated before analysis by liquid chromatography high resolution mass spectrometry. […] Percent remaining at each timepoint was calculated relative to timepoint zero based on absolute peak areas.

A further data set addresses T1, human IL-23R (Homo sapiens, UniProt Q5VWK5).
T1 construct: UniProtKB—Q5VWK5, amino acids 22-629; secretion signal of the plasmid (Promega N1371); expressed in transfected cells
T1 sequence (Q5VWK5 22-629): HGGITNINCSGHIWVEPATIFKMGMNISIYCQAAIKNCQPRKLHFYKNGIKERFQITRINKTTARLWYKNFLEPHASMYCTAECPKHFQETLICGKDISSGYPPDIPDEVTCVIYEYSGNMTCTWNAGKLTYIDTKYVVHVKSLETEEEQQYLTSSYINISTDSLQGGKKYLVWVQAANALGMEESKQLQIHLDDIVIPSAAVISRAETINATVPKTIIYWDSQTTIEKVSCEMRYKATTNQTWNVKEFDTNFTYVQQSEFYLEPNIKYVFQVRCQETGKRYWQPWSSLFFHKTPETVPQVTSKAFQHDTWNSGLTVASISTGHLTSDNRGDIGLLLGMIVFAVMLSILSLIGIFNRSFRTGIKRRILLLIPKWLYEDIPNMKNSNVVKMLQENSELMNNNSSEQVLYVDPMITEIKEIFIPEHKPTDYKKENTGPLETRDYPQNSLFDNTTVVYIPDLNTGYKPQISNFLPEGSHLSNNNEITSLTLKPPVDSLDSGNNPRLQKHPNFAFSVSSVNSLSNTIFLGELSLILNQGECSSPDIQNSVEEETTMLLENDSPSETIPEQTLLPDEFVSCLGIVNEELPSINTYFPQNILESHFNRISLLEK
As to the kind of experiment: Binding assay (NanoBRET displacement of fluorophore-labelled reference compound) for estimating binding affinity to human IL-23R.

Where [2] appears, read: pig, simulated intestinal fluid (SIF) with porcine pancreatin.
Where [3] appears, read: Table 3-1, read-out: Ki hIL-23R.

The values below come from patent publication US20250154198A1, “PEPTIDE INHIBITORS OF INTERLEUKIN-23 RECEPTOR” (Zealand Pharma A/S, priority 2021, published 2025).

Where two headings read alike, the source gives them in different places. *1 amine or outer side, *2 acyl side, *3 side chain or, on linkers, in order; H or OH if unused. Where a SMILES comes first, the peptide text is derived from it. Bridges are numbered along the chain shown (N, C = ends). [ ]: non-standard residue; d: D form. NHCH2(1,3-C6H4)CH2CO = O=C(Cc1cccc(CN[*:1])c1)[*:2]; Trp(4-F) = N[C@@H](Cc1c[nH]c2cccc(F)c12)C(=O)O; αMeAla(3-pyridyl) = C[C@](N)(Cc1cccnc1)C(=O)O; Trp(1-Me) = Cn1cc(C[C@H](N)C(=O)O)c2ccccc21; Phe(3,4-Me2) = Cc1ccc(C[C@H](N)C(=O)O)cc1C; Bip = N[C@@H](Cc1ccc(-c2ccccc2)cc1)C(=O)O; Phe(4-Me) = Cc1ccc(C[C@H](N)C(=O)O)cc1; dPhe(4-F) = N[C@H](Cc1ccc(F)cc1)C(=O)O; 2Nal = N[C@@H](Cc1ccc2ccccc2c1)C(=O)O; AEF = NCCOc1ccc(C[C@H](N)C(=O)O)cc1; X20 = O=C(c1ccc(CCN[*:1])cc1)[*:2]; X1 = O=C(Cc1ccc(CN[*:1])cc1)[*:2]; αMeL = CC(C)C[C@](C)(N)C(=O)O; CH2COCH2 = O=C(C[*:1])C[*:2]; Phg = N[C@H](C(=O)O)c1ccccc1; αMeV = CC(C)[C@](C)(N)C(=O)O; 3Amb = NCc1cccc(C(=O)O)c1; Dab = NCC[C@H](N)C(=O)O

Consider `CC[C@H](C)[C@@H]1NC(=O)Cc2ccc(cc2)CNC(=O)CC[C@@H](C(=O)N[C@@H](CCN)C(=O)N[C@@](C)(Cc2cccnc2)C(N)=O)NC(=O)[C@](C)(C(C)C)NC(=O)[C@H](Cc2ccc(C)c(C)c2)NC(=O)[C@H](Cc2ccc(OC)cc2)NC(=O)[C@@H]2CCNC(=O)CC[C@H](NC1=O)C(=O)N[C@@H](Cc1c[nH]c3ccccc13)C(=O)N[C@@H](CCC(N)=O)C(=O)N2` [Compound 166, [4-Aminomethyl-phenylacetyl](1c)*IE(2c)WQ[Dab](2c)[Y(Me)][F(3,4-Me)][2-Me-Val]E(1c)[Dab][2-Me-3-(3-Pyridyl)-Ala]-[NH2]] ([X1]IEWQ[Dab]Y(Me)[Phe(3,4-Me2)][αMeV]E[Dab][αMeAla(3-pyridyl)]-NH2; lactam 3-6, N-10), for which the share remaining at 4 h, 10 μM in data set [1] (setting [2]) is 86%.

Consider `CC[C@H](C)[C@@H]1NC(=O)Cc2ccc(cc2)CNC(=O)CC[C@@H](C(=O)N[C@@H](CCN)C(=O)N[C@@](C)(Cc2cccnc2)C(N)=O)NC(=O)[C@](C)(C(C)C)NC(=O)[C@H](Cc2ccc(C)c(C)c2)NC(=O)[C@H](c2ccccc2)NC(=O)[C@@H]2CCNC(=O)CC[C@H](NC1=O)C(=O)N[C@@H](Cc1c[nH]c3ccccc13)C(=O)N[C@@H](CCC(N)=O)C(=O)N2` [Compound 174, [4-Aminomethyl-phenylacetyl](1c)*IE(2c)WQ[Dab](2c)[Phg][F(3,4-Me)][2-Me-Val]E(1c)[Dab][2-Me-3-(3-Pyridyl)-Ala]-[NH2]] ([X1]IEWQ[Dab][Phg][Phe(3,4-Me2)][αMeV]E[Dab][αMeAla(3-pyridyl)]-NH2; lactam 3-6, N-10), for which the fraction remaining at 4 h, 10 μM in data set [1] (setting [2]) is 86%.

With `CC(C)C[C@]1(C)NC(=O)[C@H](Cc2ccc3ccccc3c2)NC(=O)[C@H](Cc2c[nH]c3ccccc23)NC(=O)[C@@H]2CSCC(=O)CSC[C@H](NC(=O)[C@H](CO)NC(=O)c3cccc(c3)CNC(=O)CC[C@@H](C(=O)N[C@@H](CCCNC(=N)N)C(N)=O)NC1=O)C(=O)N[C@@H](Cc1c[nH]c3ccccc13)C(=O)N[C@@H](CCC(N)=O)C(=O)N2` [Compound 40, [(3-Aminomethyl)benzoyl](1c)*SC(2a)WQC(2a)W[2-Nal][2-Me-Leu]E(1c)R-[NH2]] ([3Amb]SCWQCW[2Nal][αMeL]ER-NH2; linker 3-6 via CH2COCH2; lactam N-10), in data set [1] (pig, simulated intestinal fluid (SIF) with porcine pancreatin, 1 h, read-out: SIF (% remaining 1 h)), the share remaining at 1 h, 10 μM was 70%.

With `CC[C@H](C)[C@@H]1NC(=O)Cc2ccc(cc2)CNC(=O)CC[C@@H](C(=O)N[C@@H](CCN)C(=O)N[C@@](C)(Cc2cccnc2)C(N)=O)NC(=O)[C@](C)(C(C)C)NC(=O)[C@H](Cc2cn(C)c3ccccc23)NC(=O)[C@H](Cc2ccc(C)cc2)NC(=O)[C@@H]2CCNC(=O)CC[C@H](NC1=O)C(=O)N[C@@H](Cc1c[nH]c3ccccc13)C(=O)N[C@@H](CCC(N)=O)C(=O)N2` [Compound 175, [4-Aminomethyl-phenylacetyl](1c)*IE(2c)WQ[Dab](2c)[F(4-Me)][1-Me-Trp][2-Me-Val]E(1c)[Dab][2-Me-3-(3-Pyridyl)-Ala]-[NH2]] ([X1]IEWQ[Dab][Phe(4-Me)][Trp(1-Me)][αMeV]E[Dab][αMeAla(3-pyridyl)]-NH2; lactam 3-6, N-10), the share remaining at 4 h, 10 μM in data set [1] (setting [2]) was 93%.

Take `CC(C)C[C@@H]1NC(=O)[C@H](Cc2c[nH]c3ccccc23)NC(=O)[C@H](Cc2c[nH]c3ccccc23)NC(=O)[C@@H]2CSCC(=O)CSC[C@H](NC(=O)[C@H]([C@@H](C)O)NC(=O)[C@@H](NC(=O)CN)CSCC(=O)CSC[C@@H](C(=O)N[C@@H](CO)C(N)=O)NC1=O)C(=O)N[C@@H](Cc1c[nH]c3ccccc13)C(=O)N[C@@H](CCC(=O)O)C(=O)N2` (single isomer, unassigned) [I1 (isomer 3), H-GC(1a)TC(2a)WEC(2a)WWLC(1a)S-[NH2], reference compound]: in data set [1], the “SIF (% remaining 4 h)” value is 0%.

Take `CSCC[C@H](NC(=O)[C@@H]1CSCC(=O)CSC[C@H](NC(=O)[C@@H](N)CCC(=O)O)C(=O)N[C@@H](Cc2c[nH]c3ccccc23)C(=O)N[C@@H](CC(C)C)C(=O)N[C@H]2CSCC(=O)CSC[C@H](NC(=O)[C@H](CC(N)=O)NC(=O)[C@H](CCCNC(=N)N)NC(=O)[C@H](Cc3ccc(O)cc3)NC(=O)[C@H](Cc3ccc(O)cc3)NC2=O)C(=O)N[C@@H](CC(N)=O)C(=O)N1)C(N)=O` (single isomer, unassigned) [I4 (isomer 3), H-EC(4a)WLC(5a)YYRNC(5a)NC(4a)M-[NH2], reference compound]: the “SIF (% remaining 4 h)” value in data set [1] is 0%.

In the case of `CC[C@H](C)[C@@H]1NC(=O)Cc2ccc(cc2)CNC(=O)CC[C@@H](C(=O)N[C@@H](CCN)C(=O)N[C@@](C)(Cc2cccnc2)C(N)=O)NC(=O)[C@](C)(C(C)C)NC(=O)[C@H](Cc2ccc(C)c(C)c2)NC(=O)[C@H](Cc2ccc(-c3ccccc3)cc2)NC(=O)[C@@H]2CCNC(=O)CC[C@H](NC1=O)C(=O)N[C@@H](Cc1c[nH]c3ccccc13)C(=O)N[C@@H](CCC(N)=O)C(=O)N2` [Compound 168, [4-Aminomethyl-phenylacetyl](1c)*IE(2c)WQ[Dab](2c)[Bip][F(3,4-Me)][2-Me-Val]E(1c)[Dab][2-Me-3-(3-Pyridyl)-Ala]-[NH2]] ([X1]IEWQ[Dab][Bip][Phe(3,4-Me2)][αMeV]E[Dab][αMeAla(3-pyridyl)]-NH2; lactam 3-6, N-10), the fraction remaining at 4 h, 10 μM in data set [1] (setting [2]) is 104%.

Consider `CC(C)C[C@]1(C)NC(=O)[C@H](Cc2ccc3ccccc3c2)NC(=O)[C@H](Cc2ccc(OCCN)cc2)NC(=O)[C@@H]2CSCC(=O)CSC[C@H](NC(=O)[C@H](CO)NC(=O)Cc3cccc(c3)CNC(=O)CC[C@@H](C(=O)N[C@H](CCCNC(=N)N)C(N)=O)NC1=O)C(=O)N[C@@H](Cc1c[nH]c3ccccc13)C(=O)N[C@@H](CCC(N)=O)C(=O)N2` [Compound 92, [3-Aminomethyl-phenylacetyl](1c)*SC(2a)WQC(2a)[Y(2-aminoethoxy)][2-Nal][2-Me-Leu]E(1c)[{d}R]-[NH2]] ([NHCH2(1,3-C6H4)CH2CO]SCWQC[AEF][2Nal][αMeL]E[dR]-NH2; linker 3-6 via CH2COCH2; lactam N-10), for which the fraction remaining at 4 h, 10 μM in data set [1] (setting [2]) was 102%.

With `CC[C@H](C)[C@@H]1NC(=O)Cc2ccc(cc2)CNC(=O)CC[C@@H](C(=O)N[C@@H](CCN)C(=O)N[C@@](C)(Cc2cccnc2)C(N)=O)NC(=O)[C@](C)(C(C)C)NC(=O)[C@H](Cc2ccc(C)c(C)c2)NC(=O)[C@@H](Cc2ccc(F)cc2)NC(=O)[C@@H]2CCNC(=O)CC[C@H](NC1=O)C(=O)N[C@@H](Cc1c[nH]c3ccccc13)C(=O)N[C@@H](CCC(N)=O)C(=O)N2` [Compound 170, [4-Aminomethyl-phenylacetyl](1c)*IE(2c)WQ[Dab](2c)[{d}F(4-F)][F(3,4-Me)][2-Me-Val]E(1c)[Dab][2-Me-3-(3-Pyridyl)-Ala]-[NH2]] ([X1]IEWQ[Dab][dPhe(4-F)][Phe(3,4-Me2)][αMeV]E[Dab][αMeAla(3-pyridyl)]-NH2; lactam 3-6, N-10), the share remaining at 4 h, 10 μM in data set [1] (setting [2]) is 62%.

Take `CC(C)C[C@]1(C)NC(=O)[C@H](Cc2ccc3ccccc3c2)NC(=O)[C@H](Cc2ccc(OCCN)cc2)NC(=O)[C@@H]2CCNC(=O)CC[C@H](NC(=O)[C@H](CO)NC(=O)Cc3ccc(cc3)CNC(=O)CC[C@@H](C(=O)N[C@@H](CCN)C(N)=O)NC1=O)C(=O)N[C@@H](Cc1c[nH]c3cccc(F)c13)C(=O)N[C@@H](CCC(N)=O)C(=O)N2` [Compound 138, [4-Aminomethyl-phenylacetyl](1c)*SE(2c)[4-F-Trp]Q[Dab](2c)[Y(2-aminoethoxy)][2-Nal][2-Me-Leu]E(1c)[Dab]-[NH2]] ([X1]SE[Trp(4-F)]Q[Dab][AEF][2Nal][αMeL]E[Dab]-NH2; lactam 3-6, N-10): the Ki on human IL-23R (setting [3]) was 0.723 nM.

On to `CC(C)C[C@]1(C)NC(=O)[C@H](Cc2ccc3ccccc3c2)NC(=O)[C@H](Cc2ccc(OCCN)cc2)NC(=O)[C@@H]2CSCC(=O)CSC[C@H](NC(=O)[C@H](CO)NC(=O)c3ccc(cc3)CCNC(=O)CC[C@@H](C(=O)N[C@@H](CCCNC(=N)N)C(N)=O)NC1=O)C(=O)N[C@@H](Cc1c[nH]c3ccccc13)C(=O)N[C@@H](CCC(N)=O)C(=O)N2` [Compound 50, [4-(2-Aminoethyl)benzoyl](1c)*SC(2a)WQC(2a)[Y(2-aminoethoxy)][2-Nal][2-Me-Leu]E(1c)R-[NH2]] ([X20]SCWQC[AEF][2Nal][αMeL]ER-NH2; linker 3-6 via CH2COCH2; lactam N-10), for which the Ki at human IL-23R (Table 2-10b, read-out: Ki IL-23R) is 5.09 nM; on human IL-23R (setting [3]) it was 5.1 nM.

As usually defined, the Ki is the equilibrium dissociation constant of an inhibitor or competing ligand from its target.
